Source: patent US20210386367A1, “DEVICES AND SYSTEMS FOR GASTROINTESTINAL MICROBIOME DETECTION AND MANIPULATION” (Progenity, Inc., priority 2018, published 2021)
Converted amounts (≈) assume the structure as drawn. Like-named read-outs stand apart in the source and are kept apart here.

Assays:
S. agalactiae ATCC 13813 = experiment: Broth microdilution MIC (time-kill study); format: cell-based, Streptococcus agalactiae; conditions: S. agalacttae ATCC 13813 (so in the source)
S. pyogenes ATCC 49399 = experiment: Broth microdilution MIC (time-kill study); format: cell-based, Streptococcus pyogenes; conditions: S. pyogenes ATCC 49399
Prevotella spp. = experiment: Agar dilution MIC, 30 clinical isolates; format: cell-based; conditions: 30 Prevotella spp. clinical isolates
[1] = system: Veillonella spp. clinical isolates; experiment: MIC distribution against clinical isolates; format: cell-based; conditions: 30 Veillonella spp. isolates
Excerpt: (n=19 V. parvula, n=9 Veillonella spp., n=1 Veillonella dispr., n=1 V. atypica) clinical isolates (μg/mL).
As used herein, “minimum inhibitory concentration” or “MIC” refers to the lowest concentration of an antimicrobial agent, for example, an antimicrobial agent as described herein, required to inhibit the growth of an organism. […] “MIC90” represents the MIC value at which ≥90% of the strains within a test population are inhibited; the 90th percentile.
Many susceptibility testing methods are known in the art and can be used as described herein (see, e.g., Jorgensen and Ferraro (2009) Clinical Infectious Diseases 49:1749-1755; and Maurer et al. (2017) Infectious Disease Reports 9:6839; the entire contents of each of the foregoing are incorporated herein by reference). For example, antimicrobial susceptibility can be determined using conventional culture based methods such as the broth or agar dilution test. In these dilution tests, the bacterial isolate of interest is inoculated onto different media that include serial dilutions of an antimicrobial agent, and incubated under appropriate conditions (e.g., overnight at 37° C.) to allow for growth to occur. Following the incubation period, the media is examined to determine bacterial growth. The lowest concentration of antibiotic that prevents growth represents the minimal inhibitory concentration (MIC). Broth dilution tests can be miniaturized and mechanized allowing for reproducibility and high throughput.

Bacteroides non fragilis = experiment: Agar dilution MIC, 29 clinical isolates; format: cell-based, Bacteroides spp.; conditions: 29 Bacteroides non-fragilis clinical isolates

piperacillin/tazobactam [piperacillin-tazobactam]
MIC (S. agalactiae ATCC 13813): 0.06 µg/mL
MIC (S. pyogenes ATCC 49399): 0.06 µg/mL

Cc1ncc([N+](=O)[O-])n1CCO [MTZ]
% R (Prevotella spp.): 3%
% S (Prevotella spp.): 97%
MIC50 (Prevotella spp.): 1 µg/mL (≈ 5.84 µM)
MIC90 (Prevotella spp.): 8 µg/mL (≈ 46.7 µM)
MIC range (Prevotella spp.): 0.12 to 32 µg/mL
Mode (Prevotella spp.; modal MIC): 1 µg/mL
Cumulative percentage of isolates inhibited at MIC ([1]; MIC 1 μg/mL): 3.3%
Number of test isolates at MIC ([1]; MIC 1 μg/mL): 1
Cumulative percentage of isolates inhibited at MIC ([1]; MIC 2 μg/mL): 33.3%
Number of test isolates at MIC ([1]; MIC 2 μg/mL): 9
Cumulative percentage of isolates inhibited at MIC ([1]; MIC 4 μg/mL): 83.3%
Number of test isolates at MIC ([1]; MIC 4 μg/mL): 15
Cumulative percentage of isolates inhibited at MIC ([1]; MIC >32 μg/mL): 100.0%
Number of test isolates at MIC ([1]; MIC >32 μg/mL): 5
% I (Bacteroides non fragilis): 3%
% S (Bacteroides non fragilis): 97%
MIC50 (Bacteroides non fragilis): 0.5 µg/mL (≈ 2.92 µM)
MIC90 (Bacteroides non fragilis): 2 µg/mL (≈ 11.7 µM)
Mode (Bacteroides non fragilis; modal MIC): 0.5 µg/mL

CN[C@H](CC(C)C)C(=O)N[C@H]1C(=O)N[C@@H](CC(N)=O)C(=O)N[C@H]2C(=O)N[C@H]3C(=O)N[C@H](C(=O)N[C@H](C(=O)O)c4cc(O)cc(O)c4-c4cc3ccc4O)[C@H](O)c3ccc(c(Cl)c3)Oc3cc2cc(c3O[C@@H]2O[C@H](CO)[C@@H](O)[C@H](O)[C@H]2O[C@H]2C[C@](C)(N)[C@H](O)[C@H](C)O2)Oc2ccc(cc2Cl)[C@H]1O [vancomycin, Vancomycin]
MIC (S. agalactiae ATCC 13813; Streptococcus agalactiae, ATCC13813, read-out: MIC): 0.5 µg/mL (≈ 0.345 µM)
MIC (S. pyogenes ATCC 49399; Streptococcus pyogenes, ATCC49399, read-out: MIC): 0.25 µg/mL (≈ 0.173 µM)
